The values below come from patent publication US4798823A, “New cyclosporin analogs with modified "C-9 amino acids"” (Merck & Co., Inc., priority 1987, dated 1989).

This experiment addresses cyclophilin (Bos taurus, UniProt P62935). In words: Cyclophilin binding assay. The conditions noted are these: relative to cyclosporin A (CsA); average of multiple assays. An excerpt:
^a This assay is described in detail by R. Handschumacher et. al.,

Chain of cyclophilin (P62935 whole entry): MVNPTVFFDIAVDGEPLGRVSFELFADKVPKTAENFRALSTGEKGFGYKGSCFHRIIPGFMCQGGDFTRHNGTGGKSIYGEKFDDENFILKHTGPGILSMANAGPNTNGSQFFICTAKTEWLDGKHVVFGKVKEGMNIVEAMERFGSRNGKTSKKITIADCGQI

On to “cyclo[[](((2S,3R,[4R]4S)-N,4-dimethyl-4-(methylthiomethyl)-threonyl)-L-2-aminobutyrylsarcosyl-N-methyl-L-leucyl-L-valyl-N-methyl-L-leucyl-L-alanyl-D- alanyl-N-methyl-L-leucyl-N-methyl-L-leucyl-N-methyl-L-valyl-[]]) [(a)]”, for which the “CYCLOPHILIN BINDING (% OF CsA Activity)” value stood at 179 % OF CsA Activity.
